Data taken from paper PMC7287031 (Pharmacology Research & Perspectives, 2020).
Read-outs that look alike come from different tables or passages of the source. One block for each molecule: values may come before it.

What was measured:
[1] = tested on: CYP3A; details: cited from earlier work
[2] = target: FMO; parameters: method as in Zhou et al (2002); details: ref Zhou et al (2002), read-out: Reported Ki or IC50 values; cited from earlier work
[3] = tested on: CYP enzymes that metabolise ribociclib in HLM (total metabolism; CYP-selective chemical inhibitors); assay: Inhibition of [3H] ribociclib total metabolism in HLM by CYP- and FMO-selective inhibitors; type: in vitro ADME; details: both, human, human liver microsomes, pH 7.4, probe [3H] ribociclib
[4] = tested on: CYP2C9; details: cited from earlier work
[5] = tested on: CYP2D6; details: ref literature search, read-out: Reported Ki or IC50 values, median (and range); cited from earlier work
[6] = tested on: CYP1A2; details: ref literature search, read-out: Reported Ki or IC50 values, median (and range); cited from earlier work
[7] = Rat ADME study: excretion, mass balance, metabolite profiling with radiolabeled ribociclib; type: in vivo; details: rat
Experimental: (§1) ADME studies (including QWBA in pigmented and non‐pigmented rats) using radiolabeled ribociclib were conducted in rat and dog. Relevant institutional and national guides for the care and use of laboratory animals were followed.
(§2) Metabolite profiling was conducted on plasma, urine, bile, and feces samples in the rat and dog ADME studies, and further metabolite profiling on plasma and milk was conducted in a dedicated rat milk excretion study.
(§3) Plasma samples obtained from these studies were extracted with equal volumes of acetonitrile. Additional extractions of the protein pellet with acetonitrile and/or acetone were conducted as needed to maximize radioactivity recovery. Feces samples were initially extracted with two to four volumes of acetonitrile. Additional extractions of the pellet following centrifugation and removal of supernatant were conducted with acetonitrile and/or acetone as needed to maximize radioactivity recovery. Urine and bile samples were analyzed directly following centrifugation. Radioactivity recoveries following the centrifugation step were measured by LSC. Milk samples were extracted with two volumes of acetonitrile, following centrifugation and removal of supernatant, the pellets were re‐suspended in 100 µL of water and re‐extracted with 200 µL acetonitrile.
(§4) Metabolite profiling in the ADME studies was conducted using liquid chromatography‐mass spectrometry. Radioactivity profiles were generated by diversion of the majority of the post‐column flow into 96‐well yttrium silicate scintillation‐coated plates (Deepwell Lumaplates; Perkin Elmer Life and Analytical Sciences Inc), by means of Gilson FC204 fraction collectors (Gilson). Metabolites were identified by mass spectrometry (Waters QTOF operating under MassLynx 4.1) and, where feasible, by comparison with authentic reference standards.

[8] = Dog ADME study: excretion, mass balance, metabolite profiling with radiolabeled ribociclib; type: in vivo
Experimental: as §1, §2, §3, §4

[9] = Human ADME study: PK of ribociclib and LEQ803 in plasma and urine (validated bioanalytical assay); type: in vivo; details: human plasma, bioanalytical assay, single oral 600 mg, N=6; for AUC(0-inf) / AUC(0-t) / Cmax / half-life: human, plasma, po, 600 mg
Experimental: Subjects continued to fast for 4 hours after drug administration.
Plasma aliquots at each time point were subjected to protein precipitation with three volumes of acetonitrile containing 0.1% (v:v) formic acid, followed by dilution and analysis by liquid chromatography‐tandem mass spectrometry in selected reaction monitor‐positive ion mode using heated electrospray ionization as the ionization technique. For urine aliquots, six volumes of acetonitrile containing 0.1% (v:v) formic acid were added, followed by dilution and analysis in the same way as for plasma. Components were separated using a YMC‐Triart C18 (2.0 x 30 mm, 1.9 µm) column (YMC Co. Ltd.). […] Mobile phase A was 0.1% formic acid in H2O while mobile phase B was 0.1% formic acid in ACN:Isopropanol 8:2 v:v.

[10] = Human ADME study: quantitative metabolite profiling in plasma; type: in vivo
Experimental: A plasma pool across the six healthy volunteers included in the study was prepared at the time points of 1 hour, 3 hours, 24 hours, and 48 hours post dose. For each time point, an equal volume of plasma was taken from each subject and combined. Plasma pool samples were processed by protein precipitation with acetonitrile. The protein pellet that resulted from precipitation with acetonitrile was washed further with additional aliquots of acetonitrile. All acetonitrile washes were combined and evaporated under nitrogen. For the 3‐ and 24‐hour plasma pools, the extraction procedure was slightly modified, including precipitation of the plasma proteins by addition of a 1:1 mixture of acetonitrile:methanol, followed by washing of the protein pellet with the same solvent mixture. All extracts were reconstituted with a solution of 15‐mM ammonium formate and acetonitrile (95:5 v/v). Extraction and reconstitution recoveries were measured in all four plasma samples in order to calculate and overall recovery. Quantitative metabolite profiling in plasma was accomplished using a Shimadzu Prominence high‐performance liquid chromatography (HPLC) system (Shimadzu, Columbia, MD, USA), coupled with fraction collection and analysis of total radioactivity in individual fractions using AMS (as described above). A second injection of each sample, conducted immediately after the first, was used to provide HPLC fractions for metabolite identification. The fractions identified as containing radioactivity from the AMS analysis were analyzed by HPLC coupled with high‐resolution mass spectrometry to identify the metabolites. The HPLC‐MS/MS methodology used is described below.

[11] = Human ADME study: quantitative metabolite profiling in urine and feces; type: in vivo; details: pooled excreta n=6, from metabolite patterns (radio profiling)
Experimental: Average pools across the six subjects were also created by combining equal percentages (of total urine and feces excreted over the time interval) of the individual subject pools. Urine pools were analyzed directly for metabolite profiling (column recovery of a representative sample was measured), whereas feces pools were subjected to extraction. Specifically, to each aliquot of feces homogenate, two volumes of acetonitrile were added. After centrifugation, the pellet was washed further with an additional two volumes of acetonitrile. […] All washes were combined, evaporated under nitrogen, and reconstituted with a solution of 15‐mM ammonium formate (pH 3.5). This feces extract reconstitute was analyzed for metabolite profiling. Combined extraction and reconstitution (overall recovery) and column recovery were measured. […] The HPLC column used was a Phenomenex Kinetex, C18, 250 × 4.6 mm, equipped with a pre‐column of the same type (2.1 × 4.6 mm), which was placed in a column oven at 40°C. […] The HPLC gradient was as follows: initial conditions were 5% mobile phase B for 1 minute, then increased to 20% at 10 minutes post injection where it was held (isocratic) up to 20 minutes. […] The post column flow was directed to the fraction collector operated in a time‐slice mode and containing 96‐well Lumaplates (Perkin Elmer). The plates were dried at room temperature and the radioactivity was measured using a microplate scintillation counter model TopCount NXT (Perkin Elmer) instrument (up to 3 × 100‐minute counting time). […] Metabolites were identified during the same injections using data generated by the high‐resolution mass spectrometer. The molecular ions and key fragments of each drug‐related component were determined. Key fragments for each metabolite were derived from their product ion mass spectra and were used to determine the metabolite structures. Where possible, structural assignments were supported by exact mass measurement, comparison with synthetic standards and/or Hydrogen/Deuterium (H/D) exchange LC‐MS(/MS).

[12] = Contribution of metabolites to total pharmacological activity in human; details: considering in vitro measurements and in vivo exposure
[13] = substrate: CN(C)C(=O)c1cc2cnc(Nc3ccc(N4CCNCC4)cn3)nc2n1C1CCCC1; assay: Enzyme kinetics with recombinant CYP2J2 and scaling to HLM; type: in vitro ADME, human; details: other: recombinant CYP2J2; 37.0 °C
Experimental: In vitro incubations were carried out in 100‐mM potassium phosphate buffer (pH 7.4) and 5‐mM MgCl2 with a total volume of 200 µL. Substrate and either human liver microsomes (HLM, BD Biosciences, mixed gender pool of n = 50) or recombinant human enzymes (BD Biosciences) were added and pre‐incubated for 3 minutes at 37°C. The reaction was started by addition of a fresh solution of NADPH (1 mmol/L final concentration). The samples were incubated at 37°C with agitation of 500 rpm. For incubations with CYP2A6, CYP2C9, CYP2C18, and CYP4A11, the phosphate buffer was replaced by TRIS buffer (100 mmol/L, pH 7.4) and for flavin‐containing monooxygenases (FMOs), a glycine buffer (50 mM, pH 9.5) was used.
The enzymatic reaction was stopped and the protein was precipitated by addition of an equal volume of methanol. After 30 min at −80°C, the samples were centrifuged at 30'000 x g for 15 min. The supernatant was withdrawn. Aliquots were analyzed by LSC and the supernatant was diluted with water to obtain a final solution containing less than 20% of the organic solvent. For samples of low substrate concentration, supernatants were evaporated to dryness under nitrogen, then re‐suspended in water containing less than 20% of methanol. Samples were analyzed by HPLC combined with radiodetection. […]

Molecule: Cn1cc[nH]c1=S [Methimazole]
- Ki [2]: 61 µM

- IC50 [3]: > 5 µM
Molecule: Nc1ccc(S(=O)(=O)Nc2ccnn2-c2ccccc2)cc1 [Sulfaphenazole]

Molecule: Cc1nc2c([nH]1)c(=O)n(C)c(=O)n2Cc1ccco1 [Furafylline]
- IC50 [3]: > 10 µM

- metabolite as % of plasma exposure to ribociclib [7]: 38%
- metabolite as % of plasma exposure to ribociclib [8]: 3%
- tlast, median (range) [9]: 252 (240‐312) h
- Tmax ([9]; read-out: tmax, median (range)): 2.5 h
- AUC(0-inf) ([9]; read-out: AUCinf, arithmetic mean (CV %)): 2320 ng·h/mL
- AUC(0-inf) ([9]; read-out: AUCinf, median): 2390 ng·h/mL
- AUC(0-t) ([9]; read-out: AUClast, arithmetic mean (CV %)): 2160 ng·h/mL
- AUC(0-t) ([9]; read-out: AUClast, median): 2240 ng·h/mL
- Cmax ([9]; read-out: Cmax, arithmetic mean (CV %)): 67.6 ng/mL
- Cmax ([9]; read-out: Cmax, median): 59 ng/mL
- half-life ([9]; read-out: t½, arithmetic mean (CV %) (converted)): 3.83 days
- half-life ([9]; read-out: t½, median (converted)): 3.26 days
- ratio of AUC0-48 by validated bioanalytical assay to AUC0-48 from metabolite patterns ([10]; human plasma): 0.813
- AUC0-48h, % of total [14C]-AUC0-48 ([10]; human plasma pools n=6, from metabolite patterns): 8.60%
- metabolite exposure as % of ribociclib exposure ([10]; human plasma, AUC0-48): 19.8%
- Excretion (% of dose), Feces [11]: 13.9 % of dose
- Excretion (% of dose), Urine [11]: 3.74 % of dose
- Excretion (% of dose), Feces ([11]; listed as M4): approximately 13.9 % of dose
- Excretion (% of dose), Urine ([11]; listed as M4): approximately 3.74 % of dose
Molecule: CNC(=O)c1cc2cnc(Nc3ccc(N4CCNCC4)cn3)nc2n1C1CCCC1 [M4 (LEQ803)]
- contribution to total pharmacological activity in human [12]: not to have a relevant contribution to total pharmacological activity

B1: CYP2J2 (Homo sapiens) (protein)
chain: MLAAMGSLAAALWAVVHPRTLLLGTVAFLLAADFLKRRRPKNYPPGPWRLPFLGNFFLVDFEQSHLEVQLFVKKYGNLFSLELGDISAVLITGLPLIKEALIHMDQNFGNRPVTPMREHIFKKNGLIMSSGQAWKEQRRFTLTALRNFGLGKKSLEERIQEEAQHLTEAIKEENGQPFDPHFKINNAVSNIICSITFGERFEYQDSWFQQLLKLLDEVTYLEASKTCQLYNVFPWIMKFLPGPHQTLFSNWKKLKLFVSHMIDKHRKDWNPAETRDFIDAYLKEMSKHTGNPTSSFHEENLICSTLDLFFAGTETTSTTLRWALLYMALYPEIQEKVQAEIDRVIGQGQQPSTAARESMPYTNAVIHEVQRMGNIIPLNVPREVTVDTTLAGYHLPKGTMILTNLTALHRDPTEWATPDTFNPDHFLENGQFKKREAFMPFSIGKRACLGEQLARTELFIFFTSLMQKFTFRPPNNEKLSLKFRMGITISPVSHRLCAVPQV
notes: purchased BD Biosciences
- Km [13]: 11.8 µmol/L
